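Exposure lasted 48 hours, with cells grown in 96-well plates and compounds tested at five concentrations. Abbreviation: GI50, concentration required for 50% inhibition of growth. TGI is the concentration that stops growth completely.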
Key:
Assay in all cases: inhibition of tumour cell growth, NCI panel, 48 h
M14 melanoma = test system: M14 melanoma
NCI-H522 lung = test system: NCI-H522 lung
COLO 205 colon = test system: COLO 205 colon
SK-MEL-28 melanoma = test system: SK-MEL-28 melanoma
BT-549 breast = test system: BT-549 breast
OVCAR-5 ovarian = test system: OVCAR-5 ovarian
MDA-MB-231 breast = test system: MDA-MB-231 breast
SK-OV-3 ovarian = test system: SK-OV-3 ovarian
SNB-78 CNS = test system: SNB-78 CNS
LXFL 529 NSCLC = test system: LXFL 529 NSCLC

| SMILES | GI50 (M14 melanoma) | TGI (M14 melanoma) | GI50 (NCI-H522 lung) | TGI (NCI-H522 lung) | GI50 (COLO 205 colon) | TGI (COLO 205 colon) | GI50 (SK-MEL-28 melanoma) | TGI (SK-MEL-28 melanoma) | GI50 (BT-549 breast) | TGI (BT-549 breast) | GI50 (OVCAR-5 ovarian) | TGI (OVCAR-5 ovarian) | GI50 (MDA-MB-231 breast) | TGI (MDA-MB-231 breast) | GI50 (SK-OV-3 ovarian) | TGI (SK-OV-3 ovarian) | TGI (SNB-78 CNS) | TGI (LXFL 529 NSCLC) | GI50 (LXFL 529 NSCLC) |
| --- | --- | --- | --- | --- | --- | --- | --- | --- | --- | --- | --- | --- | --- | --- | --- | --- | --- | --- | --- |
| CC1=C(C(=O)Nc2ccc(F)c(Cl)c2)C(c2cccc(Oc3ccccc3)c2)NC(=S)N1 (stereo not given) | 12 µM | 27.3 µM | 8.57 µM | 24.3 µM | 17.9 µM | > 50 µM | 8.89 µM | 25.9 µM | 14.1 µM | 32.4 µM | 19.2 µM | 34.8 µM | 10.7 µM | 22.9 µM | 15.9 µM | 43.3 µM | – | – | – |
| COc1ccc2c(c1)CCc1cc(OC)ccc1/[N+]([O-])=[N+]\2[O-] | – | > 46.4 µM | – | 13.7 µM | – | 28.8 µM | – | 34.1 µM | – | 29.8 µM | – | 52.7 µM | – | 37 µM | – | 35.6 µM | – | – | – |
| CCOC(=O)c1[nH]c2cc(OC)c(OC)cc2c1CN(C)C | – | > 100 µM | – | – | – | – | – | > 100 µM | – | – | – | > 100 µM | – | – | – | > 100 µM | > 100 µM | – | – |
| COC1C=COC2(C)Oc3c(C)c(O)c4c(O)c(c(C5SCCS5)c(O)c4c3C2=O)NC(=O)/C(C)=C\C=CC(C)C(O)C(C)C(O)C(C)C(OC(C)=O)C1C (stereo not given) | – | 27.5 µM | – | 24.2 µM | – | 6.79 µM | – | 20.8 µM | – | 16.2 µM | – | 27.8 µM | – | 18.9 µM | – | 27.7 µM | – | – | – |
| O=C(Nc1ccc(Cl)cc1C(=O)O)c1ccc([N+](=O)[O-])cc1 | – | 60.8 µM | – | – | – | 39.4 µM | – | 97.2 µM | – | – | – | 55 µM | – | – | – | 56.5 µM | 67.2 µM | 48.7 µM | – |
| O=C(c1ccc([N+](=O)[O-])cc1)C(Br)C(Br)c1ccnc2ccccc12 (stereo not given) | – | 9.81 µM | – | 6.32 µM | – | 28.9 µM | – | 30.8 µM | – | 20 µM | – | 33 µM | – | 27.8 µM | – | 32.1 µM | – | – | – |
| C#C[C@@]1(O)[C@@H](CO)O[C@@H](n2cc(C(F)(F)F)c3c(N)ncnc32)[C@@H]1O | 0.724 µM | 3.56 µM | 0.345 µM | 1.98 µM | 0.255 µM | 1.27 µM | 1.83 µM | 10 µM | 0.962 µM | 4.69 µM | 1.59 µM | 7.06 µM | 0.736 µM | > 100 µM | 0.214 µM | > 100 µM | – | – | – |
| C[N+](C)(C)c1cc[c]([Sn]([c]2ccc([N+](C)(C)C)cc2)([c]2ccc([N+](C)(C)C)cc2)[c]2ccc([N+](C)(C)C)cc2)cc1 | > 100 µM | > 100 µM | > 100 µM | > 100 µM | > 100 µM | > 100 µM | > 100 µM | > 100 µM | – | – | > 100 µM | > 100 µM | – | – | > 100 µM | > 100 µM | – | > 100 µM | > 100 µM |
| CCCCOc1ccc(/C=N/Nc2cc(C)nc3ccc(Br)cc23)cc1 | 1.74 µM | 3.2 µM | 1.72 µM | 3.21 µM | 1.85 µM | 3.47 µM | 1.72 µM | 3.13 µM | 1.77 µM | 3.42 µM | 1.86 µM | 3.25 µM | 1.88 µM | 3.51 µM | 1.66 µM | 3.05 µM | – | – | – |
| O=C(CCC(=O)Nc1cccc(C(F)(F)F)c1)CC(=O)c1ccc2ccccc2c1 | – | > 100 µM | – | > 100 µM | – | > 100 µM | – | – | – | – | – | > 100 µM | – | – | – | > 100 µM | > 100 µM | > 100 µM | – |
